The source of these data is patent US20090325952A1, “PYRAZOLO[3,4-B]PYRIDINE COMPOUNDS, AND THEIR USE AS PDE4 INHIBITORS” (Glaxo Group Limited, priority 2006, published 2009).

Structures can show the parent of a compound that is named as a salt.

The target of one assay is T1, PDE4B (human recombinant) (Homo sapiens, UniProt Q07343).
T1 construct: made in house; host or cells: Saccharomyces cerevisiae strain GL62 (PDE-deficient yeast)
T1 sequence (Q07343 1-564 isoform Q07343-2): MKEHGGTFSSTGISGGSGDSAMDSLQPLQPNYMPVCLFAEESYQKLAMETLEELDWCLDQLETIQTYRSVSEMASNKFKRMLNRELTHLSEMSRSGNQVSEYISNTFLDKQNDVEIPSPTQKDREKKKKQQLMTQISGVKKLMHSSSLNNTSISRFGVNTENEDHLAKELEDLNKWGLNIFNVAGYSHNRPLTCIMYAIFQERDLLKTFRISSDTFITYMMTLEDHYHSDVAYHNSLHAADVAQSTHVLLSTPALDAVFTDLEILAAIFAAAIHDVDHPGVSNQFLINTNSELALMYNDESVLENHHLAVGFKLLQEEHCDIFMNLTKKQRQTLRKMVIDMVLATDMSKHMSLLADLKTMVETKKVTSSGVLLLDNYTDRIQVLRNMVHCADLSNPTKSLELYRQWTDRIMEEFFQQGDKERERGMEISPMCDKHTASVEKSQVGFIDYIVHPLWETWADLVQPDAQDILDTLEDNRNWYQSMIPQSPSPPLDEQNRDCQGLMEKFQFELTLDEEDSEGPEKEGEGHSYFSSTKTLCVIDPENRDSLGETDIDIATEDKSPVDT
Description: Inhibition of PDE4B activity (FP and/or SPA assay). The format is biochemical. The following applies: generally FP assay; one reading or average of n readings; read-out: PDE4B pIC50 (generally in FP assay) (±about 0.5) (converted). The source says:
Human recombinant PDE4B, in particular the 2B splice variant thereof (HSPDE4B2B), is disclosed in WO 94/20079 and also M. M. McLaughlin et al., “A low Km, rolipram-sensitive, cAMP-specific phosphodiesterase from human brain: cloning and expression of cDNA, biochemical characterisation of recombinant protein, and tissue distribution of mRNA”, J. Biol. Chem., 1993, 268, 6470-6476. For example, in Example 1 of WO 94/20079, human recombinant PDE4B is described as being expressed in the PDE-deficient yeast Saccharomyces cerevisiae strain GL62, e.g. after induction by addition of 150 uM CuSO4, and 100,000×g supernatant fractions of yeast cell lysates are described for use in the harvesting of PDE4B enzyme.
The ability of compounds to inhibit catalytic activity at PDE4B or 4D (human recombinant), PDE3 (from bovine aorta), PDE5 (human recombinant) or PDE6 (from bovine retina) can optionally be determined by Scintillation Proximity Assay (SPA) in a 96-well format.
Test compounds (as a solution in DMSO, suitably about 2 microlitre (ul) volume of DMSO solution) are preincubated at ambient temperature (room temperature, e.g. 19-23° C.) in Wallac Isoplates (code 1450-514) with PDE enzyme in 50 mM Tris-HCl buffer pH 7.5, 8.3 mM MgCl2, 1.7 mM EGTA, 0.05% (w/v) bovine serum albumin for 10-30 minutes (usually 30 minutes). The enzyme concentration is adjusted so that no more than 20% hydrolysis of the substrate defined below occurs in control wells without compound, during the incubation. For the PDE3, PDE4B and PDE4D assays, [5′,8-^3H]Adenosine 3′,5′-cyclic phosphate (Amersham Pharmacia Biotech, code TRK.559; or Amersham Biosciences UK Ltd, Pollards Wood, Chalfont St Giles, Buckinghamshire HP8 4SP, UK) is added to give 0.05uCi per well and about 10 nM final concentration. For the PDE5 and PDE6 assays, [8^−3H]Guanosine 3′,5′-cyclic phosphate (Amersham Pharmacia Biotech, code TRK.392) is added to give 0.05uCi per well and about 36 nM final concentration. Plates containing assay mixture, suitably approx. 100 ul volume of assay mixture, are mixed on an orbital shaker for 5 minutes and incubated at ambient temperature for 1 hour. Phosphodiesterase SPA beads (Amersham Pharmacia Biotech, code RPNQ 0150) are added (about 1 mg per well) to terminate the assay. Plates are sealed and shaken and allowed to stand at ambient temperature for 35 minutes to 1 hour (suitably 35 minutes) to allow the beads to settle. Bound radioactive product is measured using a WALLAC TRILUX 1450 Microbeta scintillation counter. For inhibition curves, 10 concentrations (e.g. 1.5 nM-30 uM) of each compound are assayed. Curves are analysed using ActivityBase and XLfit (ID Business Solutions Limited, 2 Ocean Court, Surrey Research Park, Guildford, Surrey GU2 7QB, United Kingdom) Results are expressed as pIC50 values.
The ability of compounds to inhibit catalytic activity at PDE4B (human recombinant) or PDE4D (human recombinant) can optionally be determined by IMAP Fluorescence Polarisation (FP) assay (IMAP Explorer kit, available from Molecular Devices Corporation, Sunnydale, Calif., USA; Molecular Devices code: R8062) in 384-well format.
The IMAP FP assay is able to measure PDE activity in an homogenous, non-radioactive assay format. The FP assay uses the ability of immobilised trivalent metal cations, coated onto nanoparticles (tiny beads), to bind the phosphate group of Fl-AMP that is produced on the hydrolysis of fluorescein-labelled (Fl) cyclic adenosine mono-phosphate (Fl-cAMP) to the non-cyclic Fl-AMP form. […] Binding of Fl-AMP product to the beads (coated with the immobilised trivalent cations) slows the rotation of the bound Fl-AMP and leads to an increase in the fluorescence polarisation ratio of parallel to perpendicular light. Inhibition of the PDE reduces/inhibits this signal increase. […]
Take `CCc1nc2c(cnn2CC)c(NC2CCOCC2)c1CNC(=O)c1ccc(NC(=O)CCCCCCCN(C)CCO)cc1` [Example 1A1, N-{[1,6-Diethyl-4-(tetrahydro-2H-pyran-4-ylamino)-1H-pyrazolo[3,4-b]pyridin-5-yl]methyl}-4-({8-[(2-hydroxyethyl)(methyl)amino]octanoyl}amino)benzamide dihydrochloride]: the IC50 was around 0.0501 nM.
Still for that read-out and setting: the value for `CCc1nc2c(cnn2CC)c(NC2CCOCC2)c1CNC(=O)c1ccc(NC(=O)CCCCCCCN(C)CCO)cc1` [Example 1B, N-{[1,6-diethyl-4-(tetrahydro-2H-pyran-4-ylamino)-1H-pyrazolo[3,4-b]pyridin-5-yl]methyl}-4-({8-[(2-hydroxyethyl)(methyl)amino]octanoyl}amino)benzamide] was around 0.0631 nM; that for `CCc1nc2c(cnn2CC)c(NC2CCOCC2)c1CNC(=O)c1ccc(CCCCOCCCCN(C)CCO)cc1` [Example 19, formate salt of N-{[1,6-diethyl-4-(tetrahydro-2H-pyran-4-ylamino)-1H-pyrazolo[3,4-b]pyridin-5-yl]methyl}-4-[4-({4-[(2-hydroxyethyl)(methyl)amino]butyl}oxy)butyl]benzamide] was around 0.0398 nM.
The same measure, in the same setting: the value for `CCc1nc2c(cnn2CC)c(NC2CCN(C(N)=O)CC2)c1CNC(=O)c1ccc(CCCCOCCCCN2CCOCC2)cc1` [Example 23A, 4-({1,6-diethyl-5-[({[4-(4-{[4-(4-morpholinyl)butyl]oxy}butyl)phenyl]carbonyl}amino)methyl]-1H-pyrazolo[3,4-b]pyridin-4-yl}amino)-1-piperidinecarboxamide] was around 0.1 nM.
Same read-out and setting: as for `CCn1ncc2c(NC3CCOCC3)c(CNC(=O)c3ccc(NC(=O)CCCCCCCN(C)CCO)cc3)cnc21` [Example 26, Formate salt of N-{[1-ethyl-4-(tetrahydro-2H-pyran-4-ylamino)-1H-pyrazolo[3,4-b]pyridin-5-yl]methyl}-4-({8-[(2-hydroxyethyl)(methyl)amino]octanoyl}amino)benzamide], the figure is around 0.251 nM.

The same assay, now with this note: one reading or average of n readings.
Turning to `CCc1nc2c(cnn2CC)c(NC2CCN(C(N)=O)CC2)c1CNC(=O)c1ccc(NC(=O)CCCCCCCN(C)CCO)cc1.O=C(O)C(F)(F)F` [Example 9, 4-({1,6-diethyl-5-[({[4-({8-[(2-hydroxyethyl)(methyl)amino]octanoyl}amino)phenyl]carbonyl}amino)methyl]-1H-pyrazolo[3,4-b]pyridin-4-yl}amino)-1-piperidinecarboxamide trifluoroacetate (salt)], the “PDE4B pIC50 (generally in FP assay) (±about 0.5)” value was “about 10.3 (n = 1)”.
